From patent US9931347B2, “Pharmaceutical compound” (IOmet Pharma Ltd., priority 2013, dated 2018)

Columns and labels:
[1] = target: T1, IDO (SKOV3 human ovarian adenocarcinoma cells, IFN-γ induced) (Homo sapiens, UniProt P14902); assay: SKOV3 Kynurenine cell based assay; conditions: IDO induced by 500 ng/ml IFN-γ, 500 μM L-tryptophan, 48 hours
T1 construct: IDO expression was induced in the SKOV3 cells by the addition of 500 ng/ml IFN-γ; endogenous in cells; host or cells: SKOV3 human ovarian adenocarcinoma cells, induced with IFN-γ
In short: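 IFN-γ (500 ng/ml) induced IDO in SKOV3 cells, seeded at 40,000/well in phenol red-free RPMI with 10% FCS, 2 mM L-glutamine and 500 μM L-tryptophan. Cells were incubated with or without compound at 37° C for 48 h. Supernatant kynurenine was detected with Ehrlich's reagent.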

[2] = target: T2, TDO (A172 human glioblastoma cells) (Homo sapiens, UniProt P48775); assay: A172 Kynurenine cell based assay; conditions: 500 μM L-tryptophan, 48 hours, kynurenine by Erhlich's reagent
T2 construct: This assay utilised cancer cells which expressed either TDO or IDO; endogenous in cells; host or cells: A172 human glioblastoma cells
In short: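 A172 glioblastoma cells (30,000/well) cultured at 37° C. in phenol red-free RPMI with 10% FCS, 2 mM L-glutamine and 500 μM L-tryptophan, with or without test compound. After 48 hours, kynurenine in the supernatant was read with Erhlich's reagent (5 min) as absorbance at 490 nm.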

Recombinant human IDO = Recombinant human IDO (Homo sapiens, UniProt P14902); assay: hIDO biochemical coupled assay; conditions: 45 μM L-tryptophan, coupled with kynurenine formamidase
In short: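 Recombinant human IDO incubated in 50 mM KPO4 (pH 7.0), 0.5 mM EGTA, 0.5 mM EDTA, 0.05% Triton X100, 20 mM ascorbate, 10 μM methylene blue, 500 U/ml catalase and 50 μg/ml kynurenine formamidase. N-formylkynurenine converted to kynurenine, quantified by fluorescence after Ehrlich's reagent.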

Recombinant human TDO = Recombinant human TDO (Homo sapiens, UniProt P48775); assay: hTDO biochemical coupled assay; conditions: 330 μM L-tryptophan, coupled with kynurenine formamidase
In short: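 Recombinant human TDO with 330 μM L-tryptophan in 50 mM KPO4 pH 7.0 containing EGTA, EDTA, Triton X100, ascorbate, methylene blue, catalase and kynurenine formamidase (KynB), 17 min at room temperature. Stopped with Ehrlich's reagent, 5 min, then kynurenine fluorescence read (Ex475, Em530).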

T2 sequence (P48775 whole entry): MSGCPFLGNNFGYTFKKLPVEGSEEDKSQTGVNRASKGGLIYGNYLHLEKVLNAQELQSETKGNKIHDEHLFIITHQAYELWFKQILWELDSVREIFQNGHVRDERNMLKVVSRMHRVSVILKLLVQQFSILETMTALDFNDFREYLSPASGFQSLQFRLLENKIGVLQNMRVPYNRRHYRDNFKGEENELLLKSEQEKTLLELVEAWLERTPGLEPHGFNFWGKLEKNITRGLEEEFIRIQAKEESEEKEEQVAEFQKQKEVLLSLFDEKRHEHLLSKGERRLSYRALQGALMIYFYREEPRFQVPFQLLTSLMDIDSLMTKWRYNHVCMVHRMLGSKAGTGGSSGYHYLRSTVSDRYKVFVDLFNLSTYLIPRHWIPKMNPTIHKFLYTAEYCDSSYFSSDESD
Chain of Recombinant human TDO (P48775 whole entry): as above
T1 sequence (P14902 whole entry): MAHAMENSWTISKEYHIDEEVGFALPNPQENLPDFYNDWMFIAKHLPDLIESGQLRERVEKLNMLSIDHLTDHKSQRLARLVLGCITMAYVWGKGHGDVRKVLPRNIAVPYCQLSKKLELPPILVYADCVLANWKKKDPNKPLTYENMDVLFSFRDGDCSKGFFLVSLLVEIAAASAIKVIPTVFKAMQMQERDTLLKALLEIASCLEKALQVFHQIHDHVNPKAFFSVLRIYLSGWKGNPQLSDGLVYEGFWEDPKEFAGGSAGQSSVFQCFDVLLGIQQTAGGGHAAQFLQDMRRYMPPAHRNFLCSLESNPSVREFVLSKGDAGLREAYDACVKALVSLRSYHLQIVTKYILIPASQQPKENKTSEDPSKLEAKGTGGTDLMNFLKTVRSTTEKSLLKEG
Chain of Recombinant human IDO (P14902 whole entry): as above

Row | SKOV3 Kynurenine cell based assay pIC50 [1] | A172 Kynurenine cell based assay pIC50 [2] | hIDO biocehmical assay pIC50 (Recombinant human IDO) | hTDO biochemical assay pIC50 (Recombinant human TDO) | SMILES
1 | +− (+− = pIC50 <4.00) | + (+ = pIC50 4.00-4.99) | +− (+− = pIC50 <4.00) | +− (+− = pIC50 <4.00) | CC(C)S(=O)(=O)N1CCC(c2c[nH]c3ccccc23)CC1 [Compound 73]
2 | + (+ = pIC50 4.00-4.99) | +− (+− = pIC50 <4.00) | +− (+− = pIC50 <4.00) | + (+ = pIC50 4.00-4.99) | CC(=O)N1CC=C(c2c[nH]c3ncccc23)CC1 [Compound 105]
3 | + (+ = pIC50 4.00-4.99) | + (+ = pIC50 4.00-4.99) | +− (+− = pIC50 <4.00) | +− (+− = pIC50 <4.00) | CCOC(=O)N1CCC(c2c[nH]c3ccccc23)CC1 [Compound 66]
4 | +− (+− = pIC50 <4.00) | + (+ = pIC50 4.00-4.99) | +− (+− = pIC50 <4.00) | + (+ = pIC50 4.00-4.99) | Cn1cnc(S(=O)(=O)N2CCC(c3c[nH]c4ccccc34)CC2)c1 [Compound 4]
5 | + (+ = pIC50 4.00-4.99) | + (+ = pIC50 4.00-4.99) | +− (+− = pIC50 <4.00) | ++ (++ = pIC50 5.00-5.99) | CC(=O)N1CC=C(c2c[nH]c3ccc(C)cc23)CC1 [Compound 89]
6 | +− (+− = pIC50 <4.00) | + (+ = pIC50 4.00-4.99) | +− (+− = pIC50 <4.00) | +− (+− = pIC50 <4.00) | CS(=O)(=O)N1CC=C(c2c[nH]c3c(F)cccc23)CC1 [Compound 100]
7 | +− (+− = pIC50 <4.00) | + (+ = pIC50 4.00-4.99) | +− (+− = pIC50 <4.00) | +− (+− = pIC50 <4.00) | Cc1ccc(S(=O)(=O)N2CCC(c3c[nH]c4ccccc34)CC2)c(C)c1 [Compound 14]
8 | + (+ = pIC50 4.00-4.99) | +− (+− = pIC50 <4.00) | +− (+− = pIC50 <4.00) | +− (+− = pIC50 <4.00) | Cc1cccc2c(C3CCN(C(=O)c4cc(Cl)cnc4Cl)CC3)c[nH]c12 [Compound 28]
9 | + (+ = pIC50 4.00-4.99) | +− (+− = pIC50 <4.00) | +− (+− = pIC50 <4.00) | +− (+− = pIC50 <4.00) | Cc1ccc2[nH]cc(C3CCN(S(=O)(=O)c4cc(C(F)(F)F)ccc4C(F)(F)F)CC3)c2c1 [Compound 35]
10 | +− (+− = pIC50 <4.00) | + (+ = pIC50 4.00-4.99) | +− (+− = pIC50 <4.00) | +− (+− = pIC50 <4.00) | O=C(c1ccccc1)N1CCC(c2c[nH]c3ccccc23)CC1 [Compound 82]
11 | + (+ = pIC50 4.00-4.99) | ++ (++ = pIC50 5.00-5.99) | +− (+− = pIC50 <4.00) | +− (+− = pIC50 <4.00) | CC(=O)N1CCC(c2c[nH]c3ccccc23)CC1 [Compound 1]
12 | +− (+− = pIC50 <4.00) | + (+ = pIC50 4.00-4.99) | +− (+− = pIC50 <4.00) | +− (+− = pIC50 <4.00) | CC(C)C(=O)N1CCC(c2c[nH]c3ccccc23)CC1 [Compound 106]
13 | +− (+− = pIC50 <4.00) | ++ (++ = pIC50 5.00-5.99) | +− (+− = pIC50 <4.00) | + (+ = pIC50 4.00-4.99) | O=S(=O)(C1CC1)N1CCC(c2c[nH]c3ccccc23)CC1 [Compound 75]
14 | +− (+− = pIC50 <4.00) | + (+ = pIC50 4.00-4.99) | +− (+− = pIC50 <4.00) | +− (+− = pIC50 <4.00) | CS(=O)(=O)N1CCC(c2c[nH]c3cccc(F)c23)CC1 [Compound 95]
15 | ++ (++ = pIC50 5.00-5.99) | +− (+− = pIC50 <4.00) | +− (+− = pIC50 <4.00) | +− (+− = pIC50 <4.00) | CS(=O)(=O)N1CCC(C2C(=O)Nc3cc(F)ccc32)CC1 (stereo not drawn) [Compound 178]
16 | + (+ = pIC50 4.00-4.99) | +− (+− = pIC50 <4.00) | +− (+− = pIC50 <4.00) | +− (+− = pIC50 <4.00) | Cc1ccc2[nH]cc(C3CCN(S(=O)(=O)c4cccc(Cl)c4C)CC3)c2c1 [Compound 32]
17 | + (+ = pIC50 4.00-4.99) | ++ (++ = pIC50 5.00-5.99) | +− (+− = pIC50 <4.00) | ++ (++ = pIC50 5.00-5.99) | CC(=O)N1CC=C(c2c[nH]c3cc(F)c(F)cc23)CC1 [Compound 167]
18 | + (+ = pIC50 4.00-4.99) | +− (+− = pIC50 <4.00) | +− (+− = pIC50 <4.00) | +− (+− = pIC50 <4.00) | CCc1cc(Br)ccc1S(=O)(=O)N1CCC(c2c[nH]c3ccc(OC)cc23)CC1 [Compound 29]
19 | +− (+− = pIC50 <4.00) | +++ (+++ = pIC50 ≥6.00) | +− (+− = pIC50 <4.00) | +++ (+++ = pIC50 ≥6.00) | NS(=O)(=O)N1CC=C(c2c[nH]c3cc(F)ccc23)CC1 [Compound 164]
20 | + (+ = pIC50 4.00-4.99) | +++ (+++ = pIC50 ≥6.00) | +− (+− = pIC50 <4.00) | ++ (++ = pIC50 5.00-5.99) | CS(=O)(=O)N1CC=C(c2c[nH]c3cc(F)ccc23)CC1 [Compound 103]
21 | +− (+− = pIC50 <4.00) | ++ (++ = pIC50 5.00-5.99) | +− (+− = pIC50 <4.00) | + (+ = pIC50 4.00-4.99) | CCCS(=O)(=O)N1CCC(c2c[nH]c3ccccc23)CC1 [Compound 69]
22 | + (+ = pIC50 4.00-4.99) | +++ (+++ = pIC50 ≥6.00) | +− (+− = pIC50 <4.00) | ++ (++ = pIC50 5.00-5.99) | CS(=O)(=O)N1CC=C(c2c[nH]c3cc(F)c(F)cc23)CC1 [Compound 168]
23 | + (+ = pIC50 4.00-4.99) | +− (+− = pIC50 <4.00) | +− (+− = pIC50 <4.00) | +− (+− = pIC50 <4.00) | Cc1ccc2[nH]cc(C3CCN(S(=O)(=O)c4cc(C)c(Cl)cc4Cl)CC3)c2c1 [Compound 31]
24 | + (+ = pIC50 4.00-4.99) | + (+ = pIC50 4.00-4.99) | +− (+− = pIC50 <4.00) | +− (+− = pIC50 <4.00) | CC(=O)N1CCC(c2c[nH]c3ccncc23)CC1 [Compound 174]
